# Data reported in ChEMBL document CHEMBL1201862, “PubChem BioAssay data set” (2004).
#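 Cells were grown in 96-well plates and exposed to each compound for 48 hours at five concentrations; endpoints were interpolated linearly between bracketing concentrations, or set to the highest concentration if not reached. At the GI50, growth is halved.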 Calls of active or inactive are those of the source. Rule as the data show it: active = GI50 up to about 1.1 µM and inactive = higher.
# What was measured:
# Test in all cases: inhibition of tumour cell growth, NCI panel, 48 h
# A549 = system: A549
# CCRF-CEM = system: CCRF-CEM
# EKVX = system: EKVX
# HCC 2998 = system: HCC 2998
# HT-29 = system: HT-29
# Hs-578T = system: Hs-578T
# MDA-MB-231 = system: MDA-MB-231
# MDA-MB-435 = system: MDA-MB-435
# MDA-N = system: MDA-N
# MOLT-4 = system: MOLT-4
# NCI-H226 = system: NCI-H226
# NCI-H23 = system: NCI-H23
# NCI/ADR-RES = system: NCI/ADR-RES
# OVCAR-3 = system: OVCAR-3
# OVCAR-5 = system: OVCAR-5
# PC-3 = system: PC-3
# RXF 393 = system: RXF 393
# SK-MEL-2 = system: SK-MEL-2
# UACC-257 = system: UACC-257
# K562 = system: K562
Compound,GI50 (A549),GI50 (CCRF-CEM),GI50 (EKVX),GI50 (HCC 2998),GI50 (HT-29),GI50 (Hs-578T),GI50 (MDA-MB-231),GI50 (MDA-MB-435),GI50 (MDA-N),GI50 (MOLT-4),GI50 (NCI-H226),GI50 (NCI-H23),GI50 (NCI/ADR-RES),GI50 (OVCAR-3),GI50 (OVCAR-5),GI50 (PC-3),GI50 (RXF 393),GI50 (SK-MEL-2),GI50 (UACC-257),GI50 (K562)
Cc1cc(C)c2c(=N)c3ccccc3n(CCCCCCO)c2n1,3.3 µM (inactive),1.22 µM (inactive),2.82 µM (inactive),2.81 µM (inactive),1.03 µM (active),3.03 µM (inactive),3.68 µM (inactive),4.38 µM (inactive),2.52 µM (inactive),3.78 µM (inactive),3.87 µM (inactive),2.15 µM (inactive),2.31 µM (inactive),6.55 µM (inactive),4.91 µM (inactive),2.21 µM (inactive),3.21 µM (inactive),3.27 µM (inactive),4.75 µM (inactive),–
CC(=O)O[C@@H]1C=C(C)[C@H](CBr)O[C@@]2(C)CC[C@H](Br)C(C)(C)[C@H]12,> 100 µM (inactive),19.4 µM (inactive),> 100 µM (inactive),> 100 µM (inactive),> 100 µM (inactive),> 100 µM (inactive),> 100 µM (inactive),> 100 µM (inactive),> 100 µM (inactive),77.6 µM (inactive),> 100 µM (inactive),> 100 µM (inactive),2.94 µM (inactive),–,> 100 µM (inactive),> 100 µM (inactive),> 100 µM (inactive),> 100 µM (inactive),> 100 µM (inactive),25.3 µM (inactive)
COC(=O)/C(C#N)=C(\Nc1ccccc1)N1CCOCC1,> 100 µM (inactive),–,> 100 µM (inactive),> 100 µM (inactive),> 100 µM (inactive),> 100 µM (inactive),> 100 µM (inactive),> 100 µM (inactive),> 100 µM (inactive),> 100 µM (inactive),> 100 µM (inactive),> 100 µM (inactive),> 100 µM (inactive),> 100 µM (inactive),> 100 µM (inactive),> 100 µM (inactive),> 100 µM (inactive),> 100 µM (inactive),> 100 µM (inactive),> 100 µM (inactive)
CCCC(=O)n1[nH]c(=O)n(C(C)(C)C)c1=O,> 100 µM (inactive),> 100 µM (inactive),> 100 µM (inactive),> 100 µM (inactive),> 100 µM (inactive),> 100 µM (inactive),> 100 µM (inactive),> 100 µM (inactive),> 100 µM (inactive),> 100 µM (inactive),> 100 µM (inactive),> 100 µM (inactive),> 100 µM (inactive),> 100 µM (inactive),> 100 µM (inactive),> 100 µM (inactive),> 100 µM (inactive),> 100 µM (inactive),> 100 µM (inactive),> 100 µM (inactive)
CCCCC1Cc2ccccc2-c2nc3ccccc3n21 (stereo not drawn),–,0.0153 µM (active),21 µM (inactive),14.2 µM (inactive),14.5 µM (inactive),17.1 µM (inactive),17.3 µM (inactive),17.1 µM (inactive),15.1 µM (inactive),13.6 µM (inactive),19.4 µM (inactive),14.9 µM (inactive),15.7 µM (inactive),15.2 µM (inactive),16 µM (inactive),10.3 µM (inactive),15.5 µM (inactive),16.4 µM (inactive),17.5 µM (inactive),12.6 µM (inactive)
N#Cc1c(N)oc(-c2ccc([N+](=O)[O-])cc2)c1C#N,23 µM (inactive),67.5 µM (inactive),8.67 µM (inactive),32.7 µM (inactive),34.4 µM (inactive),25.6 µM (inactive),22 µM (inactive),47.4 µM (inactive),30.3 µM (inactive),–,17.9 µM (inactive),23.8 µM (inactive),18.7 µM (inactive),–,69.8 µM (inactive),22.5 µM (inactive),28.6 µM (inactive),24.3 µM (inactive),25.2 µM (inactive),–
CCOC(=O)CNc1c(OCc2ccccc2)c(=O)c1=O,> 100 µM (inactive),> 100 µM (inactive),> 100 µM (inactive),> 100 µM (inactive),> 100 µM (inactive),> 100 µM (inactive),> 100 µM (inactive),> 100 µM (inactive),> 100 µM (inactive),> 100 µM (inactive),> 100 µM (inactive),> 100 µM (inactive),> 100 µM (inactive),> 100 µM (inactive),> 100 µM (inactive),> 100 µM (inactive),> 100 µM (inactive),> 100 µM (inactive),> 100 µM (inactive),> 100 µM (inactive)
